Patent US10851367B2, “Tissue-specific genome engineering using CRISPR-Cas9” (Pfizer Inc., priority 2015, dated 2020)

Molecular target: T1, ASGPR (Homo sapiens, UniProt P07306)
T1 sequence (P07306 148-291 limits assumed): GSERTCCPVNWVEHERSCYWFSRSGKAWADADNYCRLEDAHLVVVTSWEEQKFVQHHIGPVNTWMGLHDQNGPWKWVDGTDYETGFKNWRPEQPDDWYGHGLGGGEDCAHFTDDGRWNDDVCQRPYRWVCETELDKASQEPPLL
Experiment: SPR binding measurements for ASGPr ligands (Biacore 3000)
Settings: biotinylated ASGPR immobilized, 25° C., each run separately reported or n and std dev noted
Method: SPR Binding Measurements for ASGPr Ligands:
All SPR measurements with compounds were performed using a Biacore 3000 (GE Healthcare) at 25° C. Biotinylated ASGPR was immobilized typically at 2000-3000 resonance units (Ru) using either SA sensor chips (GE Healthcare) or custom sensor chips with Neutravidin (Pierce Biochemical) immobilized by standard amine coupling to CM5 sensor chips (GE Healthcare). The running buffer was HBS (10 mM HEPES, 150 mM NaCl), 20 mM CaCl2, 0.01% p20, 3% DMSO or 50 mM tris, 150 mM NaCl, 50 mM CaCl2, 0.01% p20, 3% DMSO pH 7.5. Compounds were diluted into running buffer at a concentration of 900 uM and serially diluted 3 fold to 3.7 uM. Compound solutions were injected at 50 ul/min for 1 min followed by a 1 min dissociation in duplicate for each concentration. For the multimeric conjugates (dimers, trimers), the conjugates were diluted in running buffer to concentrations of 100 nM or 10 nM and serially diluted. Conjugates were injected for 2 min and off rates were detected for 300 or 600 sec. After completion of off phase data the compounds were displaced using an injection of 900 uM GalNAc returning the receptor surface to the free state. […] KDs were determined by fitting the steady state binding responses for the compounds and single conjugated molecules in Scrubber2. […]

## CN(C(=O)OC(C)(C)C)[C@H]1[C@H]2OC[C@](CO)(O2)[C@H](O)[C@@H]1O [Compound 31, tert-butyl [(1S,2R,3R,4R,5S)-2,3-dihydroxy-1-(hydroxymethyl)-6,8-dioxabicyclo[3.2.1]oct-4-yl]methylcarbamate]
  Kd: 12.3 µM
